This passage reports IC50 results from ChEMBL document CHEMBL2311512, “Addition of thiols to o-quinone methide: new 2-hydroxy-3-phenylsulfanylmethyl[1,4]naphthoquinones and their activity against the human malaria parasite Plasmodium falciparum (3D7)” (Eur J Med Chem, 2013).

In this test the test system is Plasmodium falciparum. The test can be described thus: Antiplasmodial activity against Plasmodium falciparum 3D7 infected in RBC by flow cytometry analysis. Format: functional, organism-based. On the technique in general: A flow cytometer gives signals particle by particle.
The molecule `CSc1ccc(SCC2=C(O)C(=O)c3ccccc3C2=O)cc1` gave an IC50 of 22.3 µM.
For the molecule `O=C1C(O)=C(CSc2ccccc2)C(=O)c2ccccc21`, the IC50 was 27.1 µM.
Molecule `CCCSCC1=C(O)C(=O)c2ccccc2C1=O` came in with an IC50 of 31.8 µM.
`Cc1cccc(SCC2=C(O)C(=O)c3ccccc3C2=O)c1` yielded an IC50 of 5.4 µM.
For the molecule `Cc1ccc(SCC2=C(O)C(=O)c3ccccc3C2=O)cc1`, the half-maximal inhibitory concentration (IC50) amounted to 6.8 µM.
`O=C1C(O)=C(CSc2ccc(F)cc2)C(=O)c2ccccc21` displayed an IC50 of 7 µM.
In the case of `COc1ccc(SCC2=C(O)C(=O)c3ccccc3C2=O)cc1`, the IC50 was 9.3 µM.
The result for `Cc1ccccc1SCC1=C(O)C(=O)c2ccccc2C1=O` reads 9.7 µM; that for `O=C1C(O)=C(CSc2ccc([N+](=O)[O-])cc2)C(=O)c2ccccc21`, 14.4 µM.
The same measure for `O=C1C(O)=C(CSc2ccc3ccccc3c2)C(=O)c2ccccc21`: 14.5 µM; for `O=C1C(=O)c2ccccc2C(O)=C1CSc1ccc(Cl)cc1`: 20 µM; for `CSc1ccc(SC(C2=C(O)C(=O)c3ccccc3C2=O)c2ccccc2)cc1` (racemic): 18.2 µM.
`O=C1C(O)=C(C(Sc2ccc3ccccc3c2)c2ccc([N+](=O)[O-])cc2)C(=O)c2ccccc21` (racemic) registered an IC50 of 19.9 µM.
As for `Cc1ccc(SC(C2=C(O)C(=O)c3ccccc3C2=O)c2ccc([N+](=O)[O-])cc2)cc1` (racemic), the IC50 worked out at 27 µM.
In turn, `CCCSC(C1=C(O)C(=O)c2ccccc2C1=O)c1ccc([N+](=O)[O-])cc1` (racemic) displayed an IC50 of 27.8 µM.
Molecule `Cc1cccc(SC(C2=C(O)C(=O)c3ccccc3C2=O)c2ccccc2)c1` (racemic) yielded an IC50 of 34.2 µM.
`Cc1ccccc1SC(C1=C(O)C(=O)c2ccccc2C1=O)c1ccc([N+](=O)[O-])cc1` (racemic) yielded an IC50 of 6.6 µM.
With `O=C1C(O)=C(C(Sc2ccc(O)cc2)c2ccc([N+](=O)[O-])cc2)C(=O)c2ccccc21` (racemic), inhibition was half-maximal at 7.5 µM (IC50). This IC50 and that of the molecule before are within 1.5-fold of each other.
Turning to `O=C1C(O)=C(C(Sc2ccc(Cl)cc2)c2ccc([N+](=O)[O-])cc2)C(=O)c2ccccc21` (racemic), the IC50 was found to be 7.5 µM.
The result for `Cc1cccc(SC(C2=C(O)C(=O)c3ccccc3C2=O)c2ccc([N+](=O)[O-])cc2)c1` (racemic) reads 10.7 µM; that for `CCCSC(C1=C(O)C(=O)c2ccccc2C1=O)c1ccccc1` (racemic), 13.8 µM.
`O=C1C(O)=C(C(Sc2ccc([N+](=O)[O-])cc2)c2ccccc2)C(=O)c2ccccc21` (racemic) came in with a half-inhibitory concentration (IC50) of 13.9 µM. This IC50 and that of the molecule before are within 1.5-fold of each other.
The same measure for `O=C1C(O)=C(C(Sc2ccc(F)cc2)c2ccc([N+](=O)[O-])cc2)C(=O)c2ccccc21` (racemic): 14.3 µM; for `O=C1C(O)=C(C(Sc2ccccc2)c2ccc([N+](=O)[O-])cc2)C(=O)c2ccccc21` (racemic): 16.8 µM.
`Cc1ccccc1SC(C1=C(O)C(=O)c2ccccc2C1=O)c1ccccc1` (racemic) showed an IC50 of 17.6 µM.
The same measure for `O=C1C(O)=C([C@H]2CC[C@H](c3ccc(Cl)cc3)CC2)C(=O)c2ccccc21` [ATOVAQUONE]: 0.003 µM.

Usually IC50 stands for the midpoint of a concentration-inhibition curve. A lower IC50 goes with inhibition by little substance.
